Experimental data from the supplement of paper PMC9663587.

What was measured:
[1] = compound: CCN1CCN(Cc2ccc(Nc3ncc(F)c(-c4cc(F)c5nc(C)n(C(C)C)c5c4)n3)nc2)CC1; assay: increase in dead-cell fraction, 72 h; higher = more death;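 further: breast cancer cell lines in 384-well plates, stained with Hoechst plus LIVE/DEAD far red dye and imaged, cells above an LDR intensity threshold counted dead, Hoechst-negative corpses included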
[2] = compound: T1, CN(C)C(=O)c1cc2cnc(Nc3ccc(N4CCNCC4)cn3)nc2n1C1CCCC1 [LEE011/Ribociclib]; assay: as above
[3] = compound: T2, CN1CC[C@H](c2c(O)cc(O)c3c(=O)cc(-c4ccccc4Cl)oc23)[C@H](O)C1 [Flavopiridol]; assay: as above
[4] = compound: CC(=O)c1c(C)c2cnc(Nc3ccc(N4CCNCC4)cn3)nc2n(C2CCCC2)c1=O; assay: as above
[5] = compound: CCN1CCN(Cc2ccc(Nc3ncc(F)c(-c4cc(F)c5nc(C)n(C(C)C)c5c4)n3)nc2)CC1; assay: GR value, 72 h; higher = faster growth (1 = untreated, <0 = killing);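 further: breast cancer and non-malignant breast epithelial lines, nine half-log doses, viable cells counted by Hoechst and LIVE/DEAD dye imaging versus time-zero plates and DMSO controls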
[6] = compound: CN(C)C/C=C/C(=O)Nc1ccc(C(=O)Nc2cccc(Nc3ncc(Cl)c(-c4c[nH]c5ccccc45)n3)c2)cc1 [THZ1]; assay: as above
[7] = compound: T1, LEE011/Ribociclib; assay: as above
[8] = compound: CCOc1cc2ncc(C#N)c(Nc3ccc(OCc4ccccn4)c(Cl)c3)c2cc1NC(=O)/C=C/CN(C)C [Neratinib/HKI272]; assay: as above
[9] = compound: T2, Flavopiridol; assay: as above
[10] = compound: CCc1cnn2c(NCc3ccc[n+]([O-])c3)cc(N3CCCC[C@H]3CCO)nc12; assay: as above
[11] = compound: CC(=O)c1c(C)c2cnc(Nc3ccc(N4CCN(CCOCCOCCOCCNC(=O)COc5cccc6c5C(=O)N(C5CCC(=O)NC5=O)C6=O)CC4)cn3)nc2n(C2CCCC2)c1=O [BSJ-03-123]; assay: as above
[12] = compound: CC(=O)c1c(C)c2cnc(Nc3ccc(N4CCNCC4)cn3)nc2n(C2CCCC2)c1=O; assay: as above

Q: Which “increase in dead-cell fraction” value ([1]; 0.001 µM) does the source give for MDAMB361 here?
A: -0.0026

Q: And the “increase in dead-cell fraction” value ([1]; 0.003162 µM)?
A: -0.0006

Q: And the “increase in dead-cell fraction” value ([1]; 0.01 µM)?
A: 0.0107

Q: What about the “increase in dead-cell fraction” value ([1]; 0.03162 µM) of the same cell line?
A: 0.0026

Q: And the “increase in dead-cell fraction” value ([1]; 0.1 µM)?
A: 0.0066

Q: What about the “increase in dead-cell fraction” value ([1]; 0.3162 µM) of the same cell line?
A: 0.0052

Q: And the “increase in dead-cell fraction” value ([1]; 1 µM)?
A: 0.0161

Q: What about the “increase in dead-cell fraction” value ([1]; 3.162 µM) of the same cell line?
A: 0.0884

Q: What about the “increase in dead-cell fraction” value ([1]; 10 µM) of the same cell line?
A: 0.172

Q: What about the “increase in dead-cell fraction” value ([2]; 0.001 µM) of the same cell line?
A: 0.0114

Q: And the “increase in dead-cell fraction” value ([2]; 0.003162 µM)?
A: 0.0106

Q: What about the “increase in dead-cell fraction” value ([2]; 0.01 µM) of the same cell line?
A: 0.009

Q: What about the “increase in dead-cell fraction” value ([2]; 0.03162 µM) of the same cell line?
A: 0.0147

Q: And the “increase in dead-cell fraction” value ([2]; 0.1 µM)?
A: 0.0129

Q: What about the “increase in dead-cell fraction” value ([2]; 0.3162 µM) of the same cell line?
A: 0.0218

Q: What about the “increase in dead-cell fraction” value ([2]; 1 µM) of the same cell line?
A: 0.0159

Q: And the “increase in dead-cell fraction” value ([2]; 3.162 µM)?
A: 0.0012

Q: What about the “increase in dead-cell fraction” value ([2]; 10 µM) of the same cell line?
A: 0.0018

Q: What about the “increase in dead-cell fraction” value ([3]; 0.0001 µM) of the same cell line?
A: 0.0029

Q: What about the “increase in dead-cell fraction” value ([3]; 0.0003162 µM) of the same cell line?
A: -0.0069

Q: What about the “increase in dead-cell fraction” value ([3]; 0.001 µM) of the same cell line?
A: -0.0039

Q: What about the “increase in dead-cell fraction” value ([3]; 0.003162 µM) of the same cell line?
A: 0.0101

Q: And the “increase in dead-cell fraction” value ([3]; 0.01 µM)?
A: 0.0075

Q: And the “increase in dead-cell fraction” value ([3]; 0.03162 µM)?
A: 0.0039

Q: And the “increase in dead-cell fraction” value ([3]; 0.1 µM)?
A: -0.0034

Q: And the “increase in dead-cell fraction” value ([3]; 0.3162 µM)?
A: 0.0273

Q: And the “increase in dead-cell fraction” value ([3]; 1 µM)?
A: 0.0899

Q: What about the “increase in dead-cell fraction” value ([4]; 0.0003162 µM) of the same cell line?
A: 0.0032

Q: And the “increase in dead-cell fraction” value ([4]; 0.001 µM)?
A: -0.0062

Q: And the “increase in dead-cell fraction” value ([4]; 0.003162 µM)?
A: -0.002

Q: And the “increase in dead-cell fraction” value ([4]; 0.01 µM)?
A: 0.0022

Q: What about the “increase in dead-cell fraction” value ([4]; 0.03162 µM) of the same cell line?
A: 0.0148

Q: What about the “increase in dead-cell fraction” value ([4]; 0.1 µM) of the same cell line?
A: 0.0157

Q: And the “increase in dead-cell fraction” value ([4]; 0.3162 µM)?
A: 0.0051

Q: And the “increase in dead-cell fraction” value ([4]; 1 µM)?
A: 0.0076

Q: What about the “increase in dead-cell fraction” value ([4]; 3.162 µM) of the same cell line?
A: 0.0191

Q: And the GR value ([5]; 0.001 µM)?
A: 0.882 GR

Q: And the GR value ([5]; 0.003162 µM)?
A: 0.631 GR

Q: What about the GR value ([5]; 0.01 µM) of the same cell line?
A: 0.227 GR

Q: What about the GR value ([5]; 0.03162 µM) of the same cell line?
A: 0.118 GR

Q: What about the GR value ([5]; 0.1 µM) of the same cell line?
A: 0.119 GR

Q: What about the GR value ([5]; 0.3162 µM) of the same cell line?
A: 0.121 GR

Q: What about the GR value ([5]; 1 µM) of the same cell line?
A: 0.0452 GR

Q: What about the GR value ([5]; 3.162 µM) of the same cell line?
A: -0.189 GR

Q: And the GR value ([5]; 10 µM)?
A: -0.341 GR

Q: What about the GR value ([6]; 0.0001 µM) of the same cell line?
A: 0.939 GR

Q: And the GR value ([6]; 0.0003162 µM)?
A: 0.772 GR

Q: What about the GR value ([6]; 0.001 µM) of the same cell line?
A: 0.986 GR

Q: What about the GR value ([6]; 0.003162 µM) of the same cell line?
A: 0.521 GR

Q: And the GR value ([6]; 0.01 µM)?
A: 0.463 GR

Q: And the GR value ([6]; 0.03162 µM)?
A: 0.153 GR

Q: And the GR value ([6]; 0.1 µM)?
A: -0.511 GR

Q: And the GR value ([6]; 0.3162 µM)?
A: -0.804 GR

Q: And the GR value ([6]; 1 µM)?
A: -0.71 GR

Q: What about the GR value ([7]; 0.001 µM) of the same cell line?
A: 0.49 GR

Q: What about the GR value ([7]; 0.003162 µM) of the same cell line?
A: 0.396 GR

Q: And the GR value ([7]; 0.01 µM)?
A: 0.306 GR

Q: And the GR value ([7]; 0.03162 µM)?
A: 0.435 GR

Q: And the GR value ([7]; 0.1 µM)?
A: 0.287 GR

Q: What about the GR value ([7]; 0.3162 µM) of the same cell line?
A: 0.0812 GR

Q: What about the GR value ([7]; 1 µM) of the same cell line?
A: 0.176 GR

Q: What about the GR value ([7]; 3.162 µM) of the same cell line?
A: -0.0126 GR

Q: And the GR value ([7]; 10 µM)?
A: 0.2 GR

Q: And the GR value ([8]; 0.0003162 µM)?
A: 0.976 GR

Q: And the GR value ([8]; 0.001 µM)?
A: 0.848 GR

Q: And the GR value ([8]; 0.003162 µM)?
A: 0.824 GR

Q: And the GR value ([8]; 0.01 µM)?
A: 0.783 GR

Q: And the GR value ([8]; 0.03162 µM)?
A: 0.639 GR

Q: What about the GR value ([8]; 0.1 µM) of the same cell line?
A: 0.514 GR

Q: And the GR value ([8]; 0.3162 µM)?
A: 0.486 GR

Q: And the GR value ([8]; 1 µM)?
A: 0.241 GR

Q: What about the GR value ([8]; 3.162 µM) of the same cell line?
A: -0.516 GR

Q: And the GR value ([9]; 0.0001 µM)?
A: 1.05 GR

Q: What about the GR value ([9]; 0.0003162 µM) of the same cell line?
A: 0.905 GR

Q: What about the GR value ([9]; 0.001 µM) of the same cell line?
A: 0.752 GR

Q: What about the GR value ([9]; 0.003162 µM) of the same cell line?
A: 0.73 GR

Q: And the GR value ([9]; 0.01 µM)?
A: 0.942 GR

Q: What about the GR value ([9]; 0.03162 µM) of the same cell line?
A: 0.753 GR

Q: And the GR value ([9]; 0.1 µM)?
A: 0.562 GR

Q: What about the GR value ([9]; 0.3162 µM) of the same cell line?
A: -0.0494 GR

Q: And the GR value ([9]; 1 µM)?
A: -0.402 GR

Q: And the GR value ([10]; 0.0001 µM)?
A: 1.02 GR

Q: And the GR value ([10]; 0.0003162 µM)?
A: 1.06 GR

Q: And the GR value ([10]; 0.001 µM)?
A: 0.999 GR

Q: And the GR value ([10]; 0.003162 µM)?
A: 1.09 GR

Q: What about the GR value ([10]; 0.01 µM) of the same cell line?
A: 0.737 GR

Q: What about the GR value ([10]; 0.03162 µM) of the same cell line?
A: -0.473 GR

Q: And the GR value ([10]; 0.1 µM)?
A: -0.284 GR

Q: And the GR value ([10]; 0.3162 µM)?
A: -0.28 GR

Q: And the GR value ([10]; 1 µM)?
A: -0.282 GR

Q: What about the GR value ([11]; 0.001 µM) of the same cell line?
A: 1.09 GR

Q: And the GR value ([11]; 0.003162 µM)?
A: 0.828 GR

Q: What about the GR value ([11]; 0.01 µM) of the same cell line?
A: 0.927 GR

Q: And the GR value ([11]; 0.03162 µM)?
A: 0.784 GR

Q: What about the GR value ([11]; 0.1 µM) of the same cell line?
A: 0.659 GR

Q: What about the GR value ([11]; 0.3162 µM) of the same cell line?
A: 0.489 GR

Q: And the GR value ([11]; 1 µM)?
A: 0.32 GR

Q: And the GR value ([11]; 3.162 µM)?
A: 0.309 GR

Q: And the GR value ([11]; 10 µM)?
A: -0.0683 GR

Q: And the GR value ([12]; 0.0003162 µM)?
A: 0.963 GR

Q: What about the GR value ([12]; 0.001 µM) of the same cell line?
A: 1.12 GR

Q: What about the GR value ([12]; 0.003162 µM) of the same cell line?
A: 0.976 GR

Q: And the GR value ([12]; 0.01 µM)?
A: 0.78 GR

Q: And the GR value ([12]; 0.03162 µM)?
A: 0.319 GR

Q: What about the GR value ([12]; 0.1 µM) of the same cell line?
A: 0.172 GR

Q: What about the GR value ([12]; 0.3162 µM) of the same cell line?
A: 0.0854 GR

Q: And the GR value ([12]; 1 µM)?
A: 0.151 GR

Q: What about the GR value ([12]; 3.162 µM) of the same cell line?
A: 0.184 GR
